From patent publication US9815819B2, “Complement pathway modulators and uses thereof” (priority 2012, dated 2017)

Target: Recombinant human factor D (Homo sapiens (Human), UniProt P00746)
Experiment: Human Complement Factor D Assay: Method 1
Assay type: biochemical
Conditions: Factor D inhibition, Method 1: 10 nM factor D, 1 hour incubation with compound at room temperature, substrate Z-Lys-thiobenzyl, fluorescence readout; read-out: IC50
Description: Recombinant human factor D (expressed in E. coli and purified using standard methods) at 10 nM concentration is incubated with test compound at various concentrations for 1 hour at room temperature in 0.1 M Hepes buffer, pH 7.5, containing 1 mM MgCl2, 1 M NaCl and 0.05% CHAPS. […] IC50 values are calculated from percentage of inhibition of complement factor D-activity as a function of test compound concentration.

Sequence of Recombinant human factor D (P00746 26-253): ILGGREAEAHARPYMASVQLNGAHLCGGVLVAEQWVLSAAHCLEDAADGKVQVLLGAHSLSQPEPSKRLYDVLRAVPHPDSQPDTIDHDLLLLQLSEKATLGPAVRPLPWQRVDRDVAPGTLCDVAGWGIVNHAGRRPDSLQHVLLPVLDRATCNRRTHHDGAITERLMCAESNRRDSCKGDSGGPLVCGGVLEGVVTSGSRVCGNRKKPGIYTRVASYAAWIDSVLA

| SMILES | IC50 [nM] |
| --- | --- |
| NC(=O)c1nn(CC(=O)N2[C@@H]3C[C@@H]3C[C@H]2C(=O)NC2CC2c2ccc(F)cc2F)c2ccccc12 (single isomer, unassigned) [Example 75] | 7760 |
| NC(=O)c1nn(CC(=O)N2[C@@H]3C[C@@H]3C[C@H]2C(=O)N[C@@H]2C[C@@]2(F)c2ccccc2)c2ccc(F)cc12 [Example 26, 5-Fluoro-1-{2-[(1R,3S,5R)-3-((1R,2R)-2-fluoro-2-phenyl-cyclopropylcarbamoyl)-2-aza-bicyclo[3.1.0]hex-2-yl]-2-oxo-ethyl}-1H-indazole-3-carboxylic acid amide] | 60 |
| NC(=O)c1nn(CC(=O)N2[C@@H]3C[C@@H]3C[C@H]2C(=O)N[C@@H]2C[C@H]2c2ccccc2)c2ccccc12 [Example 12, 1-{2-Oxo-2-[(1R,3S,5R)-3-((1R,2S)-2-phenyl-cyclopropylcarbamoyl)-2-aza-bicyclo[3.1.0]hex-2-yl]-ethyl}-1H-indazole-3-carboxylic acid amide] | 60 |
| NC(=O)c1nn(CC(=O)N2[C@@H]3C[C@@H]3C[C@H]2C(=O)N[C@H]2C[C@]2(F)c2ccccc2)c2ccccc12 [Example 38, 1-{2-[(1R,3S,5R)-3-((1S,2S)-2-fluoro-2-phenyl-cyclopropylcarbamoyl)-2-aza-bicyclo[3.1.0]hex-2-yl]-2-oxo-ethyl}-1H-indazole-3-carboxylic acid amide] | 635 |
| NC(=O)c1nn(CC(=O)N2[C@@H]3C[C@@H]3C[C@H]2C(=O)NC2CC2c2ccc(F)cc2F)c2ccccc12 (single isomer, unassigned) [Example 76] | 36 |
| CC(=O)c1nn(CC(=O)N2[C@@H]3C[C@@H]3C[C@H]2C(=O)NC2CC2c2ccc(C)c(C)c2)c2cnccc12 (stereo partly drawn) [Example 34, (1R,3S,5R)-2-[2-(3-Acetyl-pyrazolo[3,4-c]pyridin-1-yl)-acetyl]-2-aza-bicyclo[3.1.0] hexane-3-carboxylic acid [2-(3,4-dimethyl-phenyl)-cyclopropyl]-amide] | 112 |
| CC(=O)c1nn(CC(=O)N2[C@@H]3C[C@@H]3C[C@H]2C(=O)N[C@H]2C[C@@H]2c2ccccc2)c2ccccc12 [Example 1, (1R,3S,5R)-2-[2-(3-Acetyl-indazol-1-yl)-acetyl]-2-aza-bicyclo[3.1.0]hexane-3-carboxylic acid((1S,2R)-2-phenyl-cyclopropyl)-amide] | 386 |
| CO[C@H]1[C@@H](C(=O)N[C@@H]2C[C@H]2c2ccccc2)N(C(=O)Cn2nc(C(C)=O)c3ccccc32)C[C@@H]1F [Example 10, (2S,3S,4S)-1-[2-(3-Acetyl-indazol-1-yl)-acetyl]-4-fluoro-3-methoxy-pyrrolidine-2-carboxylic acid ((1R,2S)-2-phenyl-cyclopropyl)-amide] | 40 |
| Cc1cc2c(C(N)=O)nn(CC(=O)N3[C@@H]4C[C@@H]4C[C@H]3C(=O)N[C@@H]3C[C@@]3(F)c3ccccc3)c2cn1 [Example 48, 1-{2-[(1R,3S,5R)-3-((1R,2R)-2-Fluoro-2-phenyl-cyclopropylcarbamoyl)-2-aza-bicyclo[3.1.0]hex-2-yl]-2-oxo-ethyl}-5-methyl-1H-pyrazolo[3,4-c]pyridine-3-carboxylic acid amide] | 30 |

The next lines start with the values.

| IC50 [nM] | SMILES |
| --- | --- |
| 65 | NC(=O)c1nn(CC(=O)N2[C@@H]3C[C@@H]3C[C@H]2C(=O)N[C@@H]2C[C@H]2c2ccccc2)c2cnccc12 [Example 9, 1-{2-Oxo-2-[(1R,3S,5R)-3-((1R,2S)-2-phenyl-cyclopropylcarbamoyl)-2-aza-bicyclo[3.1.0]hex-2-yl]-ethyl}-1H-pyrazolo[3,4-c]pyridine-3-carboxylic acid amide] |
| 37 | CC(=O)c1nn(CC(=O)N2[C@H](C(=O)N[C@@H]3C[C@H]3c3ccccc3Cl)C[C@@]3(CO)C[C@@H]23)c2cnccc12 [Example 31, (1R,3S,5S)-2-[2-(3-Acetyl-pyrazolo[3,4-c]pyridin-1-yl)-acetyl]-5-hydroxymethyl-2-aza-bicyclo[3.1.0]hexane-3-carboxylic acid[(1R,2S)-2-(2-chloro-phenyl)-cyclopropyl]-amide] |
| 309 | NC(=O)c1nn(CC(=O)N2C[C@H](F)C[C@H]2C(=O)N[C@@H]2C[C@H]2c2ccc(Cl)cc2)c2cnccc12 [Example 72, 1-(2-{(2S,4R)-2-[(1R,2S)-2-(4-Chloro-phenyl)-cyclopropylcarbamoyl]-4-fluoro-pyrrolidin-1-yl}-2-oxo-ethyl)-1H-pyrazolo[3,4-c]pyridine-3-carboxylic acid amide] |
| 326 | CC(=O)c1nn(CC(=O)N2[C@@H]3C[C@@H]3C[C@H]2C(=O)NC2CC2c2ccc(OC(F)F)cc2)c2cnccc12 (stereo partly drawn) [Example 32, (1R,3S,5R)-2-[2-(3-Acetyl-pyrazolo[3,4-c]pyridin-1-yl)-acetyl]-2-aza-bicyclo[3.1.0]hexane-3-carboxylic acid[2-(4-difluoromethoxy-phenyl)-cyclopropyl]-amide] |
| 30 | CC(=O)c1nn(CC(=O)N2[C@@H]3C[C@@H]3C[C@H]2C(=O)N[C@@H]2C[C@H]2c2ccccc2Cl)c2cnccc12 [Example 65, (1R,3S,5R)-2-[2-(3-Acetyl-pyrazolo[3,4-c]pyridin-1-yl)-acetyl]-2-aza-bicyclo[3.1.0] hexane-3-carboxylic acid [(1R,2S)-2-(2-chloro-phenyl)-cyclopropyl]-amide] |
| 1240 | NC(=O)c1nn(CC(=O)N2C[C@H](F)C[C@H]2C(=O)N[C@@H]2C[C@H]2c2ccccc2)c2ccncc12 [Example 16, 1-{2-[(2S,4R)-4-Fluoro-2-((1R,2S)-2-phenyl-cyclopropylcarbamoyl)-pyrrolidin-1-yl]-2-oxo-ethyl}-1H-pyrazolo[4,3-c]pyridine-3-carboxylic acid amide] |
